Test results from ChEMBL document CHEMBL5370687 (ACS Med Chem Lett, 2023).

These compounds were tested against T1, Protein-glutamine gamma-glutamyltransferase (Homo sapiens, UniProt P21980) (assay: Inhibition of human recombinant His6-tagged TG2 expressed in insect cells assessed as reduction in incorporation of dansylcadaverine into N,N-dimethylcasein measured for 30 mins by fluorescence assay).
T1 sequence (P21980 whole entry): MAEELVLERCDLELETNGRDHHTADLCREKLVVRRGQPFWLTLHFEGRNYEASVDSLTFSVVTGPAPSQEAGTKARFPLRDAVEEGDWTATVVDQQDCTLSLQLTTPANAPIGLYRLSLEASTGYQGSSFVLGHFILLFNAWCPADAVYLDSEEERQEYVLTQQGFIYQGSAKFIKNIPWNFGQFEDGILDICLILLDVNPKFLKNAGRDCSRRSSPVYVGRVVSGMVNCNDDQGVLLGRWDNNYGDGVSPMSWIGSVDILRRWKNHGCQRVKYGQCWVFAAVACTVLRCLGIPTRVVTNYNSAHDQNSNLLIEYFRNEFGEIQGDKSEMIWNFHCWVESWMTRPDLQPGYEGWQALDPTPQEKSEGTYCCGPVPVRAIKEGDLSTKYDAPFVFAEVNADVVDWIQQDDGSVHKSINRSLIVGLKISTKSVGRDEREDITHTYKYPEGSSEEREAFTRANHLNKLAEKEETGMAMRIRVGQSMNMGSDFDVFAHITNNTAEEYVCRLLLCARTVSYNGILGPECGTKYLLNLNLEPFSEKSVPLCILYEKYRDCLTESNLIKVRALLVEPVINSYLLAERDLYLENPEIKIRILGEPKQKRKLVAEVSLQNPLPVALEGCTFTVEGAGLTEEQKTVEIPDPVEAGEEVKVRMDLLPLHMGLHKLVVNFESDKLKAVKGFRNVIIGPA
Parameters: species or system Insect cell

IC50 [nM]	Compound
≤ 25	CNC(=O)C(=O)CC[C@H](NC(=O)c1cc2c(Br)cccc2o1)C(=O)Nc1cccn(CC(=O)NC2C3CC4CC(C3)CC2C4)c1=O (stereo not given in full)
≤ 25	CNC(=O)C(=O)CC[C@H](NC(=O)c1cc2ccccc2o1)C(=O)Nc1cccn(CC(=O)NC2C3CC4CC(C3)CC2C4)c1=O (stereo not given in full)
≤ 25	CNC(=O)C(=O)CC[C@H](NC(=O)c1oc2ccccc2c1Cl)C(=O)Nc1cccn(CC(=O)NC2C3CC4CC(C3)CC2C4)c1=O (stereo not given in full)
≤ 25	CNC(=O)C(=O)CC[C@H](NC(=O)c1cc2c(F)c(F)ccc2[nH]1)C(=O)Nc1cccn(CC(=O)NC2C3CC4CC(C3)CC2C4)c1=O (stereo not given in full)
≤ 25	CNC(=O)C(=O)CC[C@H](NC(=O)c1cc2cc(Br)ccc2s1)C(=O)Nc1cccn(CC(=O)NC2C3CC4CC(C3)CC2C4)c1=O (stereo not given in full)
< 250	CNC(=O)C(=O)CC[C@H](NC(=O)c1[nH]c2ccccc2c1C)C(=O)Nc1cccn(CC(=O)NC2C3CC4CC(C3)CC2C4)c1=O (stereo not given in full)
≤ 25	CNC(=O)C(=O)CC[C@H](NC(=O)C1Cc2ccccc2C1)C(=O)Nc1cccn(CC(=O)NC2C3CC4CC(C3)CC2C4)c1=O (stereo not given in full)
≤ 25	CNC(=O)C(=O)CC[C@H](NC(=O)c1cc2ccccc2[nH]1)C(=O)Nc1cccn(CC(=O)NC2C3CC4CC(C3)CC2C4)c1=O (stereo not given in full)
≤ 25	CNC(=O)C(=O)CC[C@H](NC(=O)c1cc2cccc(F)c2s1)C(=O)Nc1cccn(CC(=O)NC2C3CC4CC(C3)CC2C4)c1=O (stereo not given in full)
≤ 25	CNC(=O)C(=O)CC[C@H](NC(=O)c1cc2ccccc2s1)C(=O)Nc1cccn(CC(=O)NC2C3CC4CC(C3)CC2C4)c1=O (stereo not given in full)
